# Measurements reported in US8530504B2, “Pyrazolothiazole compound” (Eisai R&D Management Co., Ltd., priority 2009, dated 2013).
# Target: human CRFR1 (Homo sapiens (Human), UniProt P34998)
# Test: CRFR1 Binding Test;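 further: nonspecific binding was determined with a 4,000-fold excess of unlabelled sauvagine and subtracted from every reading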
# Conditions: competition with 100 pM 125I-CRF, SPA method, membrane fraction of human CRFR1-expressing HEK293 cells; read-out: CRF1 receptor binding capacity IC50
# Sequence of human CRFR1 (P34998 24-415): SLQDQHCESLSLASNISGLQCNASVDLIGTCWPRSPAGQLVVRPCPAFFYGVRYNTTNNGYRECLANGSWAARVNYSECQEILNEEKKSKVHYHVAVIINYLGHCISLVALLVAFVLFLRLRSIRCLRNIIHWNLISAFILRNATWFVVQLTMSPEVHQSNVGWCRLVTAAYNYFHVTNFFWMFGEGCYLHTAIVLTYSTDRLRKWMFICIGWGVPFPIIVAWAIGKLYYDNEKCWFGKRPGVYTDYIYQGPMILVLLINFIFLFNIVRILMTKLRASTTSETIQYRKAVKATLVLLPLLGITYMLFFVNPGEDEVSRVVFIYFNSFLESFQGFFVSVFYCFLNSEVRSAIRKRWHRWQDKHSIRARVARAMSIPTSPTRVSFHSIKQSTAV
row,IC50 [nM],SMILES
1,57,"COCCCN(CC1CC1)c1c(OC)nn2c(-c3c(OC)cc(COC)cc3OC)csc12 [Example 32, N-(Cyclopropylmethyl)-3-[2,6-dimethoxy-4-(methoxymethyl)phenyl]-6-methoxy-N-(3-methoxypropyl)pyrazolo[5,1-b][1,3]thiazole-7-amine]"
2,130,"CCCN(c1c(OC)nn2c(-c3c(OC)cc(COC)cc3OC)csc12)C1CCCOCC1 (centres unmarked) [Example 34, 3-[2,6-Dimethoxy-4-(methoxymethyl)phenyl]-6-methoxy-N-oxepan-4-yl-N-propylpyrazolo[5,1-b][1,3]thiazole-7-amine]"
3,89,"CCOCc1cc(OC)c(-c2csc3c(N(CCCF)C4CCOCC4)c(OC)nn23)c(OC)c1 [Example 35, [3-(4-Ethoxymethyl-2,6-dimethoxy-phenyl)-6-methoxy-pyrazolo[5,1-b][1,3]thiazol-7-yl]-(3-fluoro-propyl)-(tetrahydro-pyran-4-yl)-amine]"
4,95,"COCc1cc(OC)c(-c2csc3c(N(CC4CCOC4)CC4CC(F)(F)C4)c(OC)nn23)c(OC)c1 (centres unmarked) [Example 37, N-[(3,3-Difluorocyclobutyl)methyl]-3-[2,6-dimethoxy-4-(methoxymethyl)phenyl]-6-methoxy-N-(tetrahydrofuran-3-ylmethyl)pyrazolo[5,1-b][1,3]thiazole-7-amine]"
5,57,"CCCN(CCCOC)c1c(OC)nn2c(-c3c(OC)cc(COC)cc3OC)csc12 [Example 39, 3-[2,6-Dimethoxy-4-(methoxymethyl)phenyl]-6-methoxy-N-(3-methoxypropyl)-N-propylpyrazolo[5,1-b][1,3]thiazole-7-amine]"
6,32,"CCOCc1cc(OC)c(-c2csc3c(N(CCOC)CC4CC4)c(OC)nn23)c(OC)c1 [Example 40, N-(Cyclopropylmethyl)-3-[4-(ethoxymethyl)-2,6-dimethoxyphenyl]-6-methoxy-N-(2-methoxyethyl)pyrazolo[5,1-b][1,3]thiazole-7-amine]"
7,25,"CCCCN(CCOC)c1c(OC)nn2c(-c3c(OC)cc(COCC)cc3OC)csc12 [Example 41, N-Butyl-3-[4-(ethoxymethyl)-2,6-dimethoxyphenyl]-6-methoxy-N-(2-methoxyethyl)pyrazolo[5,1-b][1,3]thiazole-7-amine]"
8,45,"COCc1cc(OC)c(-c2csc3c(N(CC(C)C)C4CCOC4)c(OC)nn23)c(OC)c1 (centres unmarked) [Example 43, [3-(2,6-Dimethoxy-4-methoxymethylphenyl)-6-methoxy-pyrazolo[5,1-b][1,3]thiazol-7-yl]-isobutyl-(tetrahydrofuran-3-yl)-amine]"
9,53,"CCCN(Cc1ccncc1)c1c(OC)nn2c(-c3c(OC)cc(COC)cc3OC)csc12 [Example 44, 3-[2,6-Dimethoxy-4-(methoxymethyl)phenyl]-6-methoxy-N-propyl-N-(pyridin-4-ylmethyl)pyrazolo[5,1-b][1,3]thiazole-7-amine]"
10,48,"CCOCCN(CC1CC1)c1c(OC)nn2c(-c3c(OC)cc(COC)cc3OC)csc12 [Example 45, N-(Cyclopropylmethyl)-3-[2,6-dimethoxy-4-(methoxymethyl)phenyl]-N-(2-ethoxyethyl)-6-methoxypyrazolo[5,1-b][1,3]thiazole-7-amine]"
11,32,"CCOCc1cc(OC)c(-c2csc3c(N(CC4CCC4)C4CCOC4)c(OC)nn23)c(OC)c1 (centres unmarked) [Example 47, N-(Cyclobutylmethyl)-3-[4-(ethoxymethyl)-2,6-dimethoxyphenyl]-6-methoxy-N-(tetrahydrofuran-3-yl)pyrazolo[5,1-b][1,3]thiazole-7-amine]"
12,25,"COCCN(CC1CCC1)c1c(OC)nn2c(-c3c(OC)cc(COC)cc3OC)csc12 [Example 48, N-(Cyclobutylmethyl)-3-[2,6-dimethoxy-4-(methoxymethyl)phenyl]-6-methoxy-N-(2-methoxyethyl)pyrazolo[5,1-b][1,3]thiazole-7-amine]"
13,59,"COCc1cc(OC)c(-c2csc3c(N(CCOC(C)C)CC4CC4)c(OC)nn23)c(OC)c1 [Example 49, N-(Cyclopropylmethyl)-3-[2,6-dimethoxy-4-(methoxymethyl)phenyl]-N-(2-isopropoxyethyl)-6-methoxypyrazolo[5,1-b][1,3]thiazole-7-amine]"
14,87,"COCc1cc(OC)c(-c2csc3c(N(CCC(C)OC)CC4CC4)c(OC)nn23)c(OC)c1 (centres unmarked) [Example 50, N-(Cyclopropylmethyl)-3-[2,6-dimethoxy-4-(methoxymethyl)phenyl]-6-methoxy-N-(3-methoxybutyl)pyrazolo[5,1-b][1,3]thiazole-7-amine]"
15,36,"COCc1cc(OC)c(-c2csc3c(N(CC4CC4)CC(C)OC)c(OC)nn23)c(OC)c1 (centres unmarked) [Example 51, N-(Cyclopropylmethyl)-3-[2,6-dimethoxy-4-(methoxymethyl)phenyl]-6-methoxy-N-(2-methoxypropyl)pyrazolo[5,1-b][1,3]thiazole-7-amine]"
16,18,"COCCN(c1c(OC)nn2c(-c3c(OC)cc(COC)cc3OC)csc12)C1CCCC1 [Example 53, N-Cyclopentyl-3-[2,6-dimethoxy-4-(methoxymethyl)phenyl]-6-methoxy-N-(2-methoxyethyl)pyrazolo[5,1-b][1,3]thiazole-7-amine]"
17,20,"COCCN(c1c(OC)nn2c(-c3c(OC)cc(COC)cc3OC)csc12)C1CCCCC1 [Example 54, N-Cyclohexyl-3-[2,6-dimethoxy-4-(methoxymethyl)phenyl]-6-methoxy-N-(2-methoxyethyl)pyrazolo[5,1-b][1,3]thiazole-7-amine]"
18,19,"COCCN(CC(C)C)c1c(OC)nn2c(-c3c(OC)cc(COC)cc3OC)csc12 [Example 55, 3-[2,6-Dimethoxy-4-(methoxymethyl)phenyl]-N-isobutyl-6-methoxy-N-(2-methoxyethyl)pyrazolo[5,1-b][1,3]thiazole-7-amine]"
19,31,"COCCN(c1c(OC)nn2c(-c3c(OC)cc(COC)cc3OC)csc12)C1CCC1 [Example 56, N-Cyclobutyl-3-[2,6-dimethoxy-4-(methoxymethyl)phenyl]-6-methoxy-N-(2-methoxyethyl)pyrazolo[5,1-b][1,3]thiazole-7-amine]"
20,24,"CCN(c1c(OC)nn2c(-c3c(OC)cc(COC)cc3OC)csc12)C1CCC1 [Example 59, N-Cyclobutyl-3-[2,6-dimethoxy-4-(methoxymethyl)phenyl]-N-ethyl-6-methoxypyrazolo[5,1-b][1,3]thiazole-7-amine]"
21,33,"COc1cc(C2CC2)cc(OC)c1-c1csc2c(N(CC3CC3)CC3CCOC3)c(OC)nn12 (centres unmarked) [Example 60, 3-(4-Cyclopropyl-2,6-dimethoxyphenyl)-N-(cyclopropylmethyl)-6-methoxy-N-(tetrahydrofuran-3-ylmethyl)pyrazolo[5,1-b][1,3]thiazole-7-amine]"
22,39,"CCCN(c1c(OC)nn2c(-c3c(OC)cc(C4CC4)cc3OC)csc12)C1CCOCC1 [Example 61, 3-(4-Cyclopropyl-2,6-dimethoxyphenyl)-6-methoxy-N-propyl-N-(tetrahydro-2H-pyran-4-yl)pyrazolo[5,1-b][1,3]thiazole-7-amine]"
23,73,"COCCCN(c1c(OC)nn2c(-c3c(OC)cc(COC)cc3OC)csc12)C1CCC1 [Example 62, N-Cyclobutyl-3-[2,6-dimethoxy-4-(methoxymethyl)phenyl]-6-methoxy-N-(3-methoxypropyl)pyrazolo[5,1-b][1,3]thiazole-7-amine]"
